Experimental data reported in patent US11827628B2, “Compositions and methods for inhibition of the JAK pathway” (Rigel Pharmaceuticals, Inc., priority 2005, dated 2023).

What follows are compounds tested on up-regulation of ICAM-1 (CD54) by IFNγ in A549 lung epithelial cells (assay: A549 Epithelial Line Stimulated with IFNγ (ICAM-1 surface expression, FACS)). Details: Homo sapiens, A549, A549 epithelial line stimulated with IFNγ; ICAM-1 expression by FACS; read-out: IC50, Example 43.
Assay type: cell-based, human
In short: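 A549 cells pre-incubated 1 h with compound (30 μM to 14 nM, 5% FBS, 0.3% DMSO), then stimulated with IFNγ (75 ng/mL) for 24 h. Surface ICAM-1 stained with APC anti-CD54 and read by flow cytometry; geometric mean of live-gated events plotted against concentration for EC50.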

Row | IC50 | SMILES
1 | 0.73 µM | Cc1cnc(Nc2cccc(S(N)(=O)=O)c2)nc1Nc1ccc(OCC#N)cc1 [Compound I-58, N2-(3-Aminosulfonylphenyl)-N4-(4-cyanomethoxyphenyl)-5-methyl-2,4-pyrimidinediamine]
2 | 20.6 µM | Cc1ccc(Nc2ncc(C)c(Nc3ccc(OCC(N)=O)cc3)n2)cc1S(N)(=O)=O [Compound I-110, N4-(4-Aminocarbonylmethoxyphenyl)-N2-(3-aminosulfonyl-4-methylphenyl)-5-methyl-2,4-pyrimidinediamine]
3 | 21.9 µM | Cc1cc(Nc2nc(Nc3ccc(C)c(S(N)(=O)=O)c3)ncc2F)ccc1CCC#N [III-19, N2-(3-Aminosulfonyl-4-methylphenyl)-N4-[4-(2-cyanoethyl)-3-methylphenyl]-5-fluoro-2,4-pyrimidinediamine]
